For experiment [1], the target named is T1, Canine cardiac sarcolemmal vesicle Na+/Ca2+ exchanger (Canis lupus familiaris, UniProt P23685).
T1 construct: Canine cardiac sarcolemmal vesicles (0.5 mg/ml) were prepared by centrifugal fractionation; from tissue; host or cells: canine cardiac sarcolemmal vesicles
The experiment is described as follows: Canine cardiac sarcolemmal vesicle Na+/Ca2+ exchanger, Na-dependent 45Ca uptake. The following applies: canine cardiac sarcolemmal vesicles; read-out: Inhibitory activity against Na+/Ca2+ exchange (Na-dependent 45Ca uptake), IC50 value, Cardiac sarcolemma. Type of experiment: biochemical. How it is done: Method of Measuring for Canine Cardiac Sarcolemmal Vesicle Na^+/Ca^2+ Exchanger
Canine cardiac sarcolemmal vesicles (0.5 mg/ml) were prepared by centrifugal fractionation as described in Methods enzymology, vol. 157, p. 85 (1988) and suspended in Solution A (20 mM MOPS-Tris (pH 7.4), 160 mM NaCl or KCl), followed by incubation at room temperature for about one hour to cause Na or K loading into the vesicles. This suspension was diluted 50-fold with 20 μM ^45CaCl2-containing buffer to induce ^45Ca uptake, followed by dilution with the buffer (0° C.) to stop the reaction. The membrane vesicles were immediately collected on a nitrocellulose filter. Subsequently, ^45Ca trapped inside the membrane vesicles was determined by liquid scintillation counting. The Na^+/Ca^2+ exchange activity was evaluated by subtracting the value obtained for K loading from the value obtained for Na loading. The above assay for Na^+/Ca^2+ exchange activity in canine cardiac sarcolemmal vesicles was performed according to the procedures described in J. Biol. Chem., vol. 257, p. 5111 (1982).

The test system of experiment [2] is Brain microsomal Na+/Ca2+ exchanger. The experiment is described as follows: Brain microsomal Na+/Ca2+ exchanger, Na-dependent 45Ca uptake. Type of experiment: biochemical. The following applies: rat brain microsomes; read-out: Inhibitory activity against Na+/Ca2+ exchange (Na-dependent 45Ca uptake), IC50 value, Brain. Here is the method:
Method of Measuring for Brain Microsomal Na^+/Ca^2+ Exchanger
Brain microsomes (1.5 mg/mil) obtained from 8-week-old rats were pre-treated with 160 mM NaCl-containing buffer to cause Na loading into membrane vesicles. This suspension was diluted 50-fold with 20 μM ^45CaCl2-containing buffer to induce ^45Ca uptake, followed by dilution with the buffer (0° C.) to stop the reaction. The membrane vesicles were immediately collected on a nitrocellulose filter. Subsequently, ^45Ca trapped inside the membrane vesicles was determined by liquid scintillation counting. The above assay for Na^+/Ca^2+ exchange activity in brain microsomes was performed according to the procedures described in J. Biol. Chem., vol. 257, p. 5111 (1982).

The target of experiment [3] is T2, Rat renal cortex-derived BLMVs Na+/Ca2+ exchanger (Rattus norvegicus, UniProt Q01728).
T2 construct: BLMVs were prepared from rat renal cortex; from tissue; host or cells: rat renal cortex basolateral membrane vesicles
Kind of experiment: Rat renal cortex-derived BLMV Na+/Ca2+ exchange activity, Na-dependent 45Ca uptake. The following applies: for IC50: rat renal cortex BLMVs, read-out: Inhibitory activity against Na+/Ca2+ exchange (Na-dependent 45Ca uptake), IC50 value, Renal cortex. Type of experiment: biochemical. Here is the method: Preparation of Rat Renal Cortex-Derived BLMVs (Basolateral Membrane Vesicles) and Method of Measuring for their Na^+/Ca^2+ Exchange Activity
BLMVs were prepared from rat renal cortex and assayed for Na^+/Ca^2+ exchange activity according to the procedures described in Am. J. Physiol., vol. 266, p. F785 (1994).
After being excised from rats, the kidneys were placed in ice-cold sucrose buffer ([…], 0.1 mM PMSF, 10 mM Tris-HCl (pH 7.6)) and decapsulated. The isolated cortex was then finely minced in the sucrose buffer and homogenized sequentially with a Dounce-type homogenizer and a Polytron-type homogenizer, followed by centrifugation at 2500 g for 15 minutes to collect the supernatant. Centrifugation was repeated at 24000 g for 20 minutes to collect the white fluffy portion of the pellet. After further addition of the sucrose buffer, the collected fraction was homogenized with a Dounce-type homogenizer, supplemented with Percoll and then centrifuged at 30000 g for 35 minutes to collect the middle layer. After addition of buffer (100 mM KCl, 100 mM mannitol, 5 mM HEPES-Tris (pH 7.4)), centrifugation was carried out at 34000 g for 30 minutes to collect the loose white pellet (BLMVs). The pellet was further suspended in the KCl-mannitol buffer and then centrifuged at 34000 g for 30 minutes to collect the precipitate, which was used for activity assay.
(Method of Measuring for Na^+/Ca^2+ Exchanger (Na-Dependent ^45Ca Uptake))
The BLMVs thus prepared were equilibrated at 37° C. for 10 minutes in pre-equilibration buffer (100 mM NaCl, 40 mM KCl, 1 mM MgSO4, 10 mM glucose, 5 mM HEPES-Tris (pH 7.4)) and then centrifuged at 20000 g for 5 minutes to collect the precipitate, which was then resuspended in the pre-equilibration buffer. Centrifugation was repeated to collect the precipitate, followed by resuspension in the pre-equilibration buffer. […] Subsequently, the filter was washed twice with 2 ml stop solution and then the amount of ^45Ca trapped inside the BLMVs was determined by using liquid scintillation method.

In experiment [4] the test system is Dahl-salt sensitive (Dahl-S) rats. Kind of experiment: Kidney protective activity in Dahl-salt sensitive rat. Type of experiment: in vivo. The note with it: 10 mg/kg orally twice a day, 6 weeks. How it is done: This test was conducted following the method described in J. Cardiovascular Pharmacology, Vol. 23, p. 970 (1994). Specifically, procedures are as follows.
Dahl-salt sensitive (Dahl-S) rats and Dahl-salt resistant (Dahl-R) rats as control animals (male, 7 weeks old) were used for the experiment. The rats were divided into 3 groups (6 individuals for each group) for the test. • Group I: Dahl-R+4% NaCl chow+solvent orally administered (twice a day) • Group II: Dahl-S+4% NaCl chow+solvent orally administered (twice a day) • Group III: Dahl-S+4% NaCl chow+SEA0400 10 mg/kg orally administered (twice a day)
Each animal was fed with a 4% NaCl high-salt-containing chow (whereas normal chow contains 0.6% NaCl) and water adlibitum. The solvent and SEA0400 were orally, administered twice a day (first time at 8:30 to 9:30 and second time at 16:30 to 17:30) for consecutive 6 weeks. In 6 weeks after the administration started, each of the rats was placed in a metabolic cage where urine was taken so that the amounts of protein and albumin in urine were measured to observe the effect on the kidney function. Determination of the amounts of protein and albumin in urine was performed following the method described in Bunseki Kagaku, Vol. 32, pp. E379-E386 (1983) and Hypertension, Vol. 40, No. 6, pp. 834-839 (2002) using an autoanalyzer (HITACHI Automatic Analyzer 7060).

For the next experiment, the system named is ZSF-1 rats. Kind of experiment: Kidney protective activity in spontaneous diabetic rats (ZSF-1). The note with it: for Amount of urinary albumin excretion / Amount of urinary protein excretion: ZSF-1 rats. Type of experiment: in vivo, rat. How it is done:
ZSF-1 rats and ZSF-1/lean rats which were control animals (8 weeks old) obtained from The Jackson Laboratory were used for this test. The rats were divided into 5 groups (8 individuals for each group) for the test. • Group I: ZSF-1/lean+solvent orally administered (twice a day) • Group II: ZSF-1+solvent orally administered (twice a day) • Group III: ZSF-1+SEA0400 1 mg/kg orally administered (twice a day) • Group IV: ZSF-1+SEA0400 3 mg/kg orally administered (twice a day) • Group V: ZSF-1+SEA0400 10 mg/kg orally administered (twice a day)
The solvent and SEA0400 were orally administered twice a day (first time at 8:30 to 10:30 and second time at 16:30 to 18:30) for consecutive 8 weeks. Eight weeks after the administration started, each of the rats was placed in a metabolic cage where urine was taken so that the amounts of protein and albumin in urine were measured to observe the effect oil the kidney function. Determination of the amounts of protein and albumin was performed following the description of the above-mentioned references using an autoanalyzer (HITACHI 7060 Automatic Analyzer).

`N=C(N)SCCc1ccc(OCc2ccc([N+](=O)[O-])cc2)cc1` [K-BR7943, 2-[2-[4-[nitrobenzyloxy]phenyl]ethyl]isothio-ureamethanesulfonate, reference compound]: the values for the IC50 in experiment [1], in experiment [2] and in experiment [3] were 7 µM, 11 µM and 6.8 µM, respectively.
Turning to `O=[N+]([O-])c1cccnc1Oc1ccc(OCc2ccc(F)cc2)cc1` [SEA0064], the “Inhibitory activity relative to SEA0400, renal cortex-derived Na+/Ca2+ exchange activity” value in experiment [3] (relative to SEA0400) is “about 0.07 fold”.
Turning to `CCOc1ccc(Oc2ccc(OCc3cc(F)ccc3F)cc2)c(N)c1` [SEA0400, 2-[4-[(2,5-difluorophenyl)methoxy]phenoxy]-5-ethoxyaniline], the values for the IC50 in experiment [1], in experiment [2] and in experiment [3] were 0.09 µM, 0.2 µM and 0.02 µM, respectively. In addition, the “Kidney protective activity (effect on increase in urinary protein and albumin excretion)” value in experiment [4] was “significantly inhibited the increase in urinary protein and albumin excretion”; in the experiment on ZSF-1 rats (spontaneous diabetic rats (ZSF-1), orally twice a day, 8 weeks) it was “significantly inhibited the increase in urinary protein and albumin excretion”. Moreover, the “Amount of urinary albumin excretion” value in experiment [4] (4% NaCl chow, solvent group 109±14, Dahl-R 2±1) was found to be 58 ± 8 mg/day; with ZSF-1 rats (1 mg/kg orally twice a day, 8 weeks (Group III), solvent group 28±5, lean 1±0.1) it was 20 ± 5 mg/day; with ZSF-1 rats (3 mg/kg orally twice a day, 8 weeks (Group IV), solvent group 28±5), 17 ± 5 mg/day; in the experiment with ZSF-1 rats (10 mg/kg orally twice a day, 8 weeks (Group V), solvent group 28±5, significantly lower), 9 ± 2 mg/day. Besides, the “Amount of urinary protein excretion” value in experiment [4] (4% NaCl chow, solvent group 144±11, Dahl-R 23±2) was found to be 91 ± 12 mg/day; in the experiment with ZSF-1 rats (1 mg/kg orally twice a day, 8 weeks (Group III), solvent group 58±9, lean 14±1), 40 ± 8 mg/day; in the experiment with ZSF-1 rats (3 mg/kg orally twice a day, 8 weeks (Group IV), solvent group 58±9), 37 ± 7 mg/day; in the experiment on ZSF-1 rats (10 mg/kg orally twice a day, 8 weeks (Group V), solvent group 58±9, significantly lower) it was 29 ± 5 mg/day.

The values above are taken from US20050203189A1, “Remedies for chronic kidney diseases” (priority 2002, published 2005).
